Test [1] deals with T7 RNA polymerase (Enterobacteria phage T7) (UniProt P00573). The test is described as follows: Inhibition of T7 RNA polymerase assessed as RNA product formation at 5 mM using double stranded DNA as substrate after 4 hrs in presence of NTPs by sybrGOLD staining based fluorescence assay (reference value: 100%). The arrangement: scale not given: the % may be the effect or the level left. To be noted: Escherichia phage T7.

Test [2] has the same target. The test is described as follows: Inhibition of T7 RNA polymerase assessed as RNA product formation at 2 mM using double stranded DNA as substrate after 4 hrs in presence of NTPs by sybrGOLD staining based fluorescence assay (reference value: 100%). Set-up: scale not given: the % may be the effect or the level left. The note with it: Escherichia phage T7.
The target is the same in test [3]. The test is described as follows: Inhibition of T7 RNA polymerase assessed as RNA product formation at 0.2 mM using double stranded DNA as substrate after 4 hrs in presence of NTPs by sybrGOLD staining based fluorescence assay (reference value: 100%). Set-up: scale not given: the % may be the effect or the level left. The note with it: Escherichia phage T7.
Test [4] has the same target. The test is described as follows: Inhibition of T7 RNA polymerase assessed as RNA product formation at 0.5 mM using double stranded DNA as substrate after 4 hrs in presence of ATP/UTP/CTP by sybrGOLD staining based fluorescence assay (reference value: 100%). The note with it: Escherichia phage T7. Set-up: scale not given: the % may be the effect or the level left.
The target is the same in test [5]. The test is described as follows: Inhibition of T7 RNA polymerase assessed as RNA product formation at 1 mM using double stranded DNA as substrate after 4 hrs in presence of NTPs by sybrGOLD staining based fluorescence assay (reference value: 100%). Set-up: scale not given: the % may be the effect or the level left. The note with it: Escherichia phage T7.
For test [6] the target is unchanged. Briefly: Inhibition of T7 RNA polymerase assessed as RNA product formation at 2 mM using double stranded DNA as substrate incubated in presence of UV irradiation for 5 secs followed by enzyme addition measured after 4 hrs in presence of NTPs by sybrGOLD staining based fluorescence assay relative to control. To be noted: Escherichia phage T7. The arrangement: scale not given: the % may be the effect or the level left.

For test [7] the target is unchanged. Briefly: Inhibition of T7 RNA polymerase assessed as RNA product formation at 2 mM using double stranded DNA as substrate incubated in presence of UV irradiation for 10 secs followed by enzyme addition measured after 4 hrs in presence of NTPs by sybrGOLD staining based fluorescence assay relative to controll. Set-up: scale not given: the % may be the effect or the level left. To be noted: Escherichia phage T7.

Test [8] shares this target. Briefly: Inhibition of T7 RNA polymerase assessed as reduction in RNA product formation at 2 mM using double stranded DNA as substrate incubated in presence of UV irradiation for 40 secs followed by enzyme addition measured after 4 hrs in presence of NTPs by sybrGOLD staining based fluorescence assay relative to control. The arrangement: scale not given: the % may be the effect or the level left. To be noted: Escherichia phage T7.

Test [9] shares this target. The test is described as follows: Inhibition of T7 RNA polymerase assessed as reduction in RNA product formation at 2 mM using double stranded DNA as substrate incubated in presence of UV irradiation for 60 secs followed by enzyme addition measured after 4 hrs in presence of NTPs by sybrGOLD staining based fluorescence assay relative to control. To be noted: Escherichia phage T7. Set-up: scale not given: the % may be the effect or the level left.

For test [10] the target is unchanged. The test is described as follows: Inhibition of T7 RNA polymerase assessed as RNA product formation at 2 mM using double stranded DNA as substrate incubated in presence of UV irradiation for 20 secs followed by enzyme addition measured after 4 hrs in presence of NTPs by sybrGOLD staining based fluorescence assay relative to control. The arrangement: scale not given: the % may be the effect or the level left. To be noted: Escherichia phage T7.

For test [11] the target is unchanged. Briefly: Inhibition of T7 RNA polymerase assessed as RNA product formation at 2 mM using double stranded DNA as substrate incubated in presence of UV irradiation for 1 sec followed by enzyme addition measured after 4 hrs in presence of NTPs by sybrGOLD staining based fluorescence assay relative to control. The arrangement: scale not given: the % may be the effect or the level left. To be noted: Escherichia phage T7.

Test [12] shares this target. Briefly: (§1) Inhibition of T7 RNA polymerase assessed as reduction in RNA product formation using double stranded DNA as substrate after 4 hrs in presence of NTPs by sybrGOLD staining based fluorescence assay (reference value: 100%). The note with it: Escherichia phage T7.
A further test addresses T7 RNA polymerase (Enterobacteria phage T7, UniProt P00573). Described as §1. Set-up: species or system Escherichia phage T7.
Test [13] addresses T7 RNA polymerase (Enterobacteria phage T7) (UniProt P00573). Briefly: Inhibition of T7 RNA polymerase assessed as RNA product formation at 10 mM using double stranded DNA as substrate after 4 hrs in presence of NTPs by sybrGOLD staining based fluorescence assay (reference value: 100%). To be noted: Escherichia phage T7. Set-up: scale not given: the % may be the effect or the level left.

Test [14] has the same target. The test is described as follows: Inhibition of T7 RNA polymerase assessed as reduction in RNA product formation at 2 mM using double stranded DNA as substrate after 4 hrs in absence of NTPs by sybrGOLD staining based fluorescence assay (reference value: 100%). The note with it: Escherichia phage T7.
Test [15] has the same target. Briefly: Inhibition of T7 RNA polymerase assessed as reduction in RNA product formation at 2 mM using double stranded DNA as substrate incubated in absence of UV irradiation followed by enzyme addition measured after 4 hrs in presence of NTPs by sybrGOLD staining based fluorescence assay relative to control. To be noted: Escherichia phage T7.

Activity calls are given as the source filed them. The calls are words filed in the database; no cut-off is given here.

Sequence of T7 RNA polymerase (Enterobacteria phage T7) (P00573 whole entry): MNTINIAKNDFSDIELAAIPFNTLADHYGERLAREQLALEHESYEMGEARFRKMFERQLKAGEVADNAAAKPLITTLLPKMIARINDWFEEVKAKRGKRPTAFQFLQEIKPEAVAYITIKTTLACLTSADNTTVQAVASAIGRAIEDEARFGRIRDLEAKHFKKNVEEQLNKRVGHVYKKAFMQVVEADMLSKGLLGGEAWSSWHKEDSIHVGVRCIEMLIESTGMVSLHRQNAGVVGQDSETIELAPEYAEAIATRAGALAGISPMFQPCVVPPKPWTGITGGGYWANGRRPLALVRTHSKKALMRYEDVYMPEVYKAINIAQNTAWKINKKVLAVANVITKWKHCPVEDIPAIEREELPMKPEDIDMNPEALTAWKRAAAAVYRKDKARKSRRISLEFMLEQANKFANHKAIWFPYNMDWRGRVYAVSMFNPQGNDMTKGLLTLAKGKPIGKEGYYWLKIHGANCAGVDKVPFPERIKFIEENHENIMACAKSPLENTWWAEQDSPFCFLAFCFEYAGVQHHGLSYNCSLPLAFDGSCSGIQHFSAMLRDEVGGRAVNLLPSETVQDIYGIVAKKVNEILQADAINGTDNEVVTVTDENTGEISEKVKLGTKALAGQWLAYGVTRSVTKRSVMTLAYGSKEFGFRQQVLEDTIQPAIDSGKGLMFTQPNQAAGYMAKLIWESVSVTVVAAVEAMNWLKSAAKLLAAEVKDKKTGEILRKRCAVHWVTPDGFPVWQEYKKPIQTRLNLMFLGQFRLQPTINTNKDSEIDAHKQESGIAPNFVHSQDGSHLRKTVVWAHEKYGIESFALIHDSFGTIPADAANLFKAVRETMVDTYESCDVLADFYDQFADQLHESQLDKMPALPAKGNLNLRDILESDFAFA
Sequence of T7 RNA polymerase (P00573 whole entry): as above

One may read the IC50 as the concentration needed to halve the response being measured. Consider `Nc1nc(OCc2ccccc2[N+](=O)[O-])c2ncn([C@@H]3O[C@H](COP(=O)(O)OP(=O)(O)OP(=O)(O)O)[C@@H](O)[C@H]3O)c2n1`, for which the Activity was 47% in test [1]; 60 to 64% in [2]; 89% in test [3]; 89% in [4]; 87% in [5]; 41% in [6]. In addition, the Activity in test [7] was 53%; in test [8], 64%; in test [9], 62%; in test [10], 62%; in [11] it was 4%; in [13], 13%. Besides, in [12], the inhibition entry is “Dose-dependent effect”. The half-maximal inhibitory concentration (IC50) at T7 RNA polymerase came to 5 mM. The inhibition entry in [14] and in test [15] was “Active” throughout.
Consider `O=c1nc(OCc2ccccc2[N+](=O)[O-])ccn1[C@@H]1O[C@H](COP(=O)(O)OP(=O)(O)OP(=O)(O)O)[C@@H](O)[C@H]1O`, for which the Activity in [1] was 39%; in [2], 63 to 70%; in [3] it was 94%; in test [4] it was 84%; in test [5], 73%; in test [6] it was 81%. Also, the Activity was found to be 72% in test [7]; 66% in test [8]; 60% in [9]; 70% in test [10]; 67% in test [11]; 8% in [13]. In addition, in test [12], the inhibition entry was “Dose-dependent effect”. Moreover, the IC50 at T7 RNA polymerase turned out to be 5 mM. In [15], the inhibition entry was “Active”.
